From PubChem BioAssay (NCI)
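48-hour exposure; five concentrations; linearly interpolated endpoints. The concentration for full growth arrest is given as TGI.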

Columns and labels:
Experiment in all cases: NCI tumour cell line growth inhibition, 48 h
TK-10 renal = tested on: TK-10 renal
UACC-257 melanoma = tested on: UACC-257 melanoma
786-0 renal = tested on: 786-0 renal
SK-MEL-2 melanoma = tested on: SK-MEL-2 melanoma
RXF 393 renal = tested on: RXF 393 renal
COLO 205 colon = tested on: COLO 205 colon
MALME-3M melanoma = tested on: MALME-3M melanoma
HS 578T breast = tested on: HS 578T breast
SK-OV-3 ovarian = tested on: SK-OV-3 ovarian
DMS 273 small cell lung = tested on: DMS 273 small cell lung
KM20L2 colon = tested on: KM20L2 colon

Row | SMILES | TGI (TK-10 renal) | TGI (UACC-257 melanoma) | TGI (786-0 renal) | TGI (SK-MEL-2 melanoma) | TGI (RXF 393 renal) | TGI (COLO 205 colon) | TGI (MALME-3M melanoma) | TGI (HS 578T breast) | TGI (SK-OV-3 ovarian) | TGI (DMS 273 small cell lung) | TGI (KM20L2 colon)
1 | COc1cc(-c2ccccc2N)c2cccnc2c1OC | 23.7 µM | 24.8 µM | 14.9 µM | 26.5 µM | 34.6 µM | 22.1 µM | 30.4 µM | 11.9 µM | 21.9 µM | – | –
2 | CSc1c(C(=O)Nc2ccc(Cl)cc2)c(N)n(N)c(=O)c1C#N | > 100 µM | > 100 µM | > 100 µM | > 100 µM | > 100 µM | > 100 µM | > 100 µM | > 100 µM | > 100 µM | – | –
3 | CCn1c(SCC(=O)NNC(=S)NC)nc2ccccc2c1=O | > 100 µM | > 100 µM | > 100 µM | > 100 µM | > 100 µM | > 100 µM | > 100 µM | > 100 µM | > 100 µM | – | –
4 | COc1cc2nc(-c3cccs3)[nH]c(=O)c2cc1OC | > 100 µM | > 100 µM | > 100 µM | > 100 µM | > 100 µM | > 100 µM | > 100 µM | > 100 µM | > 100 µM | – | –
5 | CCOC(=O)N(c1ccccc1)N(CC)C(=O)/C(C)=N/Nc1ccc([N+](=O)[O-])cc1 | – | 29.3 µM | 33.4 µM | 30 µM | 26.2 µM | 33.5 µM | 33.5 µM | – | 37.1 µM | 30 µM | 31.3 µM
6 | O=C(CCc1ccccc1)On1c(-c2ccccc2)nc2ccccc2c1=S | > 100 µM | > 100 µM | > 100 µM | 37.5 µM | 57.3 µM | > 100 µM | 22.6 µM | > 100 µM | > 100 µM | – | –
7 | CNc1ncc(-c2nnnn2-c2ccccc2)c(CN(C)C)n1 | > 100 µM | > 100 µM | > 100 µM | > 100 µM | > 100 µM | > 100 µM | > 100 µM | > 100 µM | > 100 µM | – | –
8 | O=c1[nH]cnc2c1nnn2CCCCCCCCCCCCn1nnc2c(=O)[nH]cnc21 | 50.7 µM | > 100 µM | 60.5 µM | 51 µM | > 50.5 µM | > 100 µM | > 100 µM | 60.7 µM | 38.5 µM | > 100 µM | > 100 µM
9 | CN(C)/N=C1\CC(c2ccccc2)C(C#N)(C#N)C1(C#N)C#N (stereo unspecified) | 32.4 µM | 34.3 µM | 42.3 µM | 40 µM | 54.5 µM | 22.1 µM | 34.2 µM | 75.1 µM | > 100 µM | – | –
10 | C[Si](C)(C)C1=C([Si](C)(C)C)C(Cl)(Cl)C1=O | 5.27 µM | 6.95 µM | 10 µM | 34.6 µM | 5.33 µM | 4.87 µM | 4.22 µM | 55.7 µM | 49.3 µM | – | –
11 | c1cnc(N2CCN(Cc3c[nH]c4ccccc34)CC2)nc1 | > 100 µM | > 100 µM | 31.9 µM | 31.4 µM | > 100 µM | 67.6 µM | > 100 µM | > 100 µM | > 100 µM | – | –
